Patent US7943296B2, “Methods of screening using a natriuretic peptide receptor” (Oregon Health & Science University, priority 2005, dated 2011)

How the values were obtained:
[1] = target: T1, PKG (Homo sapiens, UniProt Q13976); conditions: earlier observation, Airhart et al. 2003; cited from earlier work
T1 construct: endogenous in cells; host or cells: HEK293 stably over-expressing FLAG-NPRA (HEK-NPRA)
T1 sequence (Q13976 1-671): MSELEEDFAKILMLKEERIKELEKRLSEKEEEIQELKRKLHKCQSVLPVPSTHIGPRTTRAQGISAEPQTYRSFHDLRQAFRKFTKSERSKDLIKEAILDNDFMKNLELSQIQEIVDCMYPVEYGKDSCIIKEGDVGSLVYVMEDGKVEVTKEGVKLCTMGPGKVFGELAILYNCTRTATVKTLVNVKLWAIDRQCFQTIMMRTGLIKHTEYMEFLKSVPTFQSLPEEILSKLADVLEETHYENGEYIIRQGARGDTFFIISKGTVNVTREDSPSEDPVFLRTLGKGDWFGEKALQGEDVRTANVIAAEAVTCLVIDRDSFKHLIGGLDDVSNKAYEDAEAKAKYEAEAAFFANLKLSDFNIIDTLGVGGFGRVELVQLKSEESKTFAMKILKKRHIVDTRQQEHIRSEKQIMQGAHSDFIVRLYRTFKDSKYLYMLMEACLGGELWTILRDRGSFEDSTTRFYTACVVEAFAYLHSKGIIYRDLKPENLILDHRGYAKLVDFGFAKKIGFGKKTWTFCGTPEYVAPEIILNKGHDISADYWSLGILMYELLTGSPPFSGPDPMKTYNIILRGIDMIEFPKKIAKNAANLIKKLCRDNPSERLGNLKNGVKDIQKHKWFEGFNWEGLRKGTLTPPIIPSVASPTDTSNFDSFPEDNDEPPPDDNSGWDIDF

[2] = test system: NPRA; experiment: [35S]ATPγS NPRA phosphorylation in HEK293 / HEK-NPRA cells; format: cell-based; conditions: HEK293 that overexpress NPRA
Experimental: To ensure that the 137-kD phosphorylation band observed in the CFs after ANP treatment was, in fact, NPRA, HEK293 or HEK-NPRA were treated with ANP with or without KT5823 as described above. The lysates were divided into two aliquots. One aliquot was incubated with [^35S] ATPγS and then separated by SDS-PAGE, blotted to Immobilon membranes, and visualized by autoradiography. The other aliquot was separated similarly and then probed with anti-NPRA antisera, stripped and re-probed with anti-α-tubulin to assure equal protein loading. Robust phosphorylation of a 137-kD protein occurred in the NPRA-expressing cells, but not in control cells (FIG. 6B). Since both KT5823 and sNRF^(806-1061) inhibit cytosolic-to-plasma membrane translocation of PKG, PKG-NPRA association appears to be required for PKG-induced NPRA phosphorylation.

[3] = test system: NPRA; experiment: [35S]ATPγS incorporation into NPRA (receptor phosphorylation) in CFs; format: cell-based, rat; conditions: ANP 5 minutes, KT5823 1 μM or expressed fragment
Experimental: To identify receptor phosphorylation by PKG, ^[35S]ATPγS was employed as a substrate. [^35S] incorporation into NPRA was analyzed according to the method previously described (Joubert et al., Biochem. 40:11096-105, 2001). Briefly, the treated CFs were scraped into 100 μl ice-cold incubation buffer (25 mM HEPES, pH 7.4, 50 mM NaCl, 5 mM MgCl2, 0.2 μM okadaic acid, 1 mM Na3VO4, 10 mM NaH2PO4, 10 mM NaF, and protease inhibitors (complete mini-tablet, Roche) and lysed by repeated passage through a 22-gauge needle. Lysates were added to incubation buffer containing 1 μCi [^35S]ATPγS (specific activity >1000 Ci/mmol), final volume of 200 μl, incubated at 37° C. for 30 minutes. Proteins were analyzed by SDS-PAGE (7.5%) and subsequent autoradiography.

COC(=O)[C@@]1(OC)C[C@H]2O[C@]1(C)n1c3ccccc3c3c4c(c5c6ccccc6n2c5c31)C(=O)N(C)C4 [KT5823]
PKG translocation [1]: inhibits PKG translocation
NP-dependent phosphorylation of NPRA [2]: inhibited
ANP-induced NPRA phosphorylation [3]: reduced ANP-induced NPRA phosphorylation to control levels
